19 molecules from patent US20130023563A1, “AMIDINOANILINE DERIVATIVE” (AJINOMOTO CO., INC., priority 2010, published 2013) can be followed below.

Counter-ions that a name gives are not always drawn.

What all share (format): biochemical
One experiment deals with FXa (Homo sapiens, UniProt P00742). The experiment can be described thus: Measurement of inhibitory activity against activated factor X (chromogenic substrate S-2222). Particulars: 0.015 U/ml FXa, 0.2 mM S-2222, absorbance 405 nm; read-out: FXa (pIC50) (converted). On the procedure:
Experimental Example 1 Measurement of Inhibitory Activity Against Activated Factor X Activity
(§1) Using a 96-well plate (#3396, Costar), 100 mM Tris-HC1 buffer (130 μL) containing 0.02% Tween 20, 0.1% PEG6000 and 0.2M NaCl was admixed with 0.015 U/ml FXa (10 μL) and a test compound (10 μL) for 10 min and a color developing substrate 0.2 mM S-2222 (50 μL) was added. Using a microplate reader Benchmark Plus (BIO-RAD), the reaction rate was measured from the time course changes at absorbance 405 nm. Using the reaction rate of the control as 100%, the negative logarithmic value of the concentration that can suppress the reaction rate of the control by 50% was taken as the pIC50 value.

Experiment [1] deals with activated factor IIa (thrombin) (Homo sapiens, UniProt P00734). Description: Measurement of inhibitory activity against activated factor II (chromogenic substrate S-2238). The note with it: 0.125 U/ml thrombin, 0.1 mM S-2238, absorbance 405 nm; read-out: FIIa (pIC50) (converted). On the procedure:
Experimental Example 2 Measurement of Inhibitory Activity Against Activated Factor II (FIIa, Thrombin)
as §1, with “mM Tris-HCl” for “mM Tris-HC1”, “with 0.125” for “with 0.015”, “U/ml activated factor IIa (thrombin)” for “U/ml FXa”, “substrate 0.1” for “substrate 0.2”, “mM S-2238” for “mM S-2222”

The test system of a further experiment is human plasma. Description: Anti-blood coagulant activity, aPTT method, Sysmex Cs-2000i (Experimental Example 3-2). The note with it: negative logarithmic value of the concentration that prolongs aPTT of the control 2 times. On the procedure: Experimental Example 3-2 Measurement of Anti-Blood Coagulant Activity
An aPTT measurement method using totally automatic blood coagulation time measuring apparatus Sysmex Cs-2000i was used. A 10 mg/ml DDVP solution (DDVP standard product, Wako) (8 μL) and a test compound solution (40 μL) were placed in a sample tube (MS-18, Japan Medical Science), human plasma (standard human plasma for blood coagulation test, GCH-100A, Sysmex) (360 μL) was added and the mixture was used as a test sample. The test sample (50 μL) was incubated at 37° C. for 1 min, data fi APTT (rabbit brain-derived cephalin, DADE Behiring) (50 μL) was added, and the mixture was further incubated at 37° C. for 2 min. To the sample solution was added 0.02M calcium chloride (50 μL), and the time until plasma coagulation was automatically measured.
As the anti-blood coagulant activity, the negative logarithmic value of the concentration that prolongs aPTT of the control 2 times is shown as paPTT2.

FXa, sequence (P00742 235-488 limits assumed): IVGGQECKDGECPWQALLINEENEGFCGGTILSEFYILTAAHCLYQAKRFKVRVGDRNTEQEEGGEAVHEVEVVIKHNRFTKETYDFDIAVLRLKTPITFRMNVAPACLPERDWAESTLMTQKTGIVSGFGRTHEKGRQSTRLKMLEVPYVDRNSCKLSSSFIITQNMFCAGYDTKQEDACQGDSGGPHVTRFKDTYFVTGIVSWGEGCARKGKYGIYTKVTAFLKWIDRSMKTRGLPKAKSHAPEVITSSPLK
FXa, sequence (P00742 41-179 partner limits assumed): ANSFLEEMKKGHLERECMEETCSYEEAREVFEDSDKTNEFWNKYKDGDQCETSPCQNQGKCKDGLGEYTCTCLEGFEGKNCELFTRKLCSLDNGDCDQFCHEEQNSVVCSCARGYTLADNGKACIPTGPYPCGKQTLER

As for `N=C(N)c1cccc(N2CCCC[C@@H]2C(=O)Oc2ccc(C(=N)N3CCCC3)nc2)c1` [compound of Ex. 50, 6-[imino(pyrrolidin-1-yl)methyl]pyridin-3-yl (2R)-1-{3-[amino(imino)methyl]phenyl}piperidine-2-carboxylate 2 trifluoroacetate], the IC50 on FXa was 5.5 nM; in experiment [1], 3630 nM. The same molecule came in with a paPTT2 in the experiment with human plasma of 6.66.
In the same order, the values of `CN(c1cccc(C(=N)N)c1)[C@@H](Cc1ccccc1)C(=O)Oc1ccc(C(=N)N2CCCC2)cc1` [compound of Ex. 46, 4-[imino(pyrrolidin-1-yl)methyl]phenyl N-{3-[amino(imino)methyl]phenyl}-N-methyl-L-phenylalaninate 2 trifluoroacetate] are 2.95 nM, 15500 nM and 6.87.
Turning to `CCC(C)[C@@H](C(=O)Oc1ccc(C(=N)N2CCCC2)cc1)N(C)c1cccc(C(=N)N)c1` (stereo partly drawn) [compound of Ex. 33, 4-[imino(pyrrolidin-1-yl)methyl]phenyl N-{3-[amino(imino)methyl]phenyl}-N-methyl-L-isoleucinate 2 trifluoroacetate], the results for the IC50 (on FXa; in experiment [1]) were 8.13 nM and 13200 nM, respectively. In addition, the paPTT2 in the experiment on human plasma is 6.80.
In the same order, the values of `CC(=N)N1CCC(Oc2ccc(OC(=O)[C@H](CO)N(C)c3cccc(C(=N)N)c3)cc2)CC1` [compound of Ex. 42, 4-[(1-ethanimidoylpiperidin-4-yl)oxy]phenyl N-{3-[amino(imino)methyl]phenyl}-N-methyl-L-serinate 2 trifluoroacetate] are 13.8 nM, 51300 nM and 6.64.
As to `CC(=N)N1CCC(Oc2ccc(OC(=O)c3cc(C(F)(F)F)nn3-c3cccc(C(=N)N)c3)cc2)CC1` [compound of Ex. 57, 4-[(1-ethanimidoylpiperidin-4-yl)oxy]phenyl 1-{3-[amino(imino)methyl]phenyl}-3-(trifluoromethyl)-1H-pyrazole-5-carboxylate 2 trifluoroacetate], the values for the IC50 (on FXa; in experiment [1]) were 5.37 nM and 6920 nM, respectively.
For `CC(=N)N1CCC(Oc2ccc(OC(=O)[C@H](C)N(C)c3cccc(C(=N)N)c3)cc2)CC1` [compound of Ex. 6, 4-[(1-ethanimidoylpiperidin-4-yl)oxy]phenyl N-{3-[amino(imino)methyl]phenyl}-N-methyl-L-alaninate 2 trifluoroacetate], the IC50 on FXa was 14.5 nM; in experiment [1], 33100 nM. This molecule also had a paPTT2 in the experiment with human plasma of 6.81.
In the same order, the values of `CCC(C)[C@H](C(=O)Oc1ccc(C(=N)N2CCCC2)cc1F)N(C)c1cccc(C(=N)N)c1` (stereo partly drawn) [compound of Ex. 39, 2-fluoro-4-[imino(pyrrolidin-1-yl)methyl]phenyl N-{3-[amino(imino)methyl]phenyl}-N-methyl-L-isoleucinate 2 trifluoroacetate] are 15.1 nM, 25700 nM and 6.50.
In the same order, the values of `CCCC[C@@H](C(=O)Oc1ccc(C(=N)N2CCCC2)cc1OC)N(C)c1cccc(C(=N)N)c1` [compound of Ex. 43, 4-[imino(pyrrolidin-1-yl)methyl]-2-methoxyphenyl N-{3-[amino(imino)methyl]phenyl}-N-methyl-L-norleucinate 2 trifluoroacetate] are 3.09 nM, 977 nM and 6.90.
The corresponding values for `N=C(N)c1cccc(N2C[C@H](O)C[C@H]2C(=O)Oc2ccc(C(=N)N3CCCC3)cc2)c1` [compound of Ex. 15, 4-[imino(pyrrolidin-1-yl)methyl]phenyl (4R)-1-[(3-[amino(imino)methyl]phenyl]-4-hydroxy-L-prolinate 2 trifluoroacetate] are 224 nM, 28200 nM and 5.68.
With `CCCC[C@@H](C(=O)Oc1ccc(C(=N)N2CCCC2)cc1C)N(C)c1cccc(C(=N)N)c1` [compound of Ex. 45, 4-[imino(pyrrolidin-1-yl)methyl]-2-methylphenyl N-{3-[amino(imino)methyl]phenyl}-N-methyl-L-norleucinate 2 trifluoroacetate], the IC50 on FXa was 3.02 nM; in experiment [1] it was 2570 nM. The molecule also came in with a paPTT2 in the experiment on human plasma of 6.71.
For the molecule `N=C(N)c1cccc(N2CCCC[C@@H]2C(=O)Oc2ccc(C(=N)N3CCCC3)cc2F)c1` [compound of Ex. 21, 2-fluoro-4-[imino(pyrrolidin-1-yl)methyl]phenyl (2R)-1-{3-[amino(imino)methyl]phenyl}piperidine-2-carboxylate 2 trifluoroacetate], the IC50 was 5.13 nM at FXa and 1910 nM in experiment [1]. In the experiment with human plasma, the paPTT2 amounted to 6.94.
In the same order, the values of `CC(C)[C@@H](C(=O)Oc1ccc(C(=N)N2CCCC2)cc1)N(C)c1cccc(C(=N)N)c1` [compound of Ex. 28, 4-[imino(pyrrolidin-1-yl)methyl]phenyl N-{3-[amino(imino)methyl]phenyl}-N-methyl-L-valinate 2 trifluoroacetate] are 30.9 nM, 14100 nM and 6.55.
For the molecule `CC(=N)N1CCC(Oc2ccc(OC(=O)[C@@H](C)N(C)c3cccc(C(=N)N)c3)cc2)CC1` [compound of Ex. 7, 4-[(1-ethanimidoylpiperidin-4-yl)oxy]phenyl N-{3-[amino(imino)methyl]phenyl}-N-methyl-D-alaninate 2 trifluoroacetate], the IC50 at FXa was 21.4 nM; in experiment [1] it was 33100 nM. Moreover, the paPTT2 in the experiment with human plasma amounted to 6.85.
Consider `N=C(N)c1cccc(N2CCCC[C@@H]2C(=O)Oc2ccc(C(=N)N3CCCC3)cc2Cl)c1` [compound of Ex. 20, 2-chloro-4-[imino(pyrrolidin-1-yl)methyl]phenyl (2R)-1-{3-[amino(imino)methyl]phenyl}piperidine-2-carboxylate 2 trifluoroacetate], for which the IC50 at FXa is 6.46 nM; in experiment [1], 1200 nM. The same molecule came in with a paPTT2 in the experiment with human plasma of 6.93.
For the molecule `CC(C)C[C@@H](C(=O)Oc1ccc(C(=N)N2CCCC2)cc1)N(C)c1cccc(C(=N)N)c1` [compound of Ex. 29, 4-[imino(pyrrolidin-1-yl)methyl]phenyl N-{3-[amino(imino)methyl]phenyl}-N-methyl-L-leucinate 2 trifluoroacetate], the IC50 at FXa is 11.2 nM; in experiment [1], 25700 nM. In the experiment with human plasma, this molecule yielded a paPTT2 of 6.72.
The corresponding values for `CCC(C(=O)Oc1ccc(C(=N)N2CCCC2)cc1)N(C)c1cccc(C(=N)N)c1` (centres unmarked) [compound of Ex. 47, 4-[imino(pyrrolidin-1-yl)methyl]phenyl 2-[{3-[amino(imino)methyl]phenyl}(methyl)amino]butanoate 2 trifluoroacetate] are 8.13 nM, 22400 nM and 6.82.
With `CCC[C@H](C(=O)Oc1ccc(OC2CCN(C(C)=N)CC2)cc1)N(C)c1cccc(C(=N)N)c1` [compound of Ex. 44, 4-[(1-ethanimidoylpiperidin-4-yl)oxy]phenyl N-{3-[amino(imino)methyl]phenyl}-N-methyl-L-norvalinate 2 trifluoroacetate], the IC50 is 3.16 nM on FXa and 1740 nM in experiment [1]. This molecule also showed a paPTT2 in the experiment with human plasma of 6.87.
In the same order, the values of `CC(=N)N1CCC(Oc2ccc(OC(=O)[C@@H](COC(C)(C)C)N(C)c3cccc(C(=N)N)c3)cc2)CC1` [compound of Ex. 40, 4-[(1-ethanimidoylpiperidin-4-yl)oxy]phenyl N-{3-[amino(imino)methyl]phenyl}-O-(tert-butyl)-N-methyl-L-serinate 2 trifluoroacetate] are 4.47 nM, 34700 nM and 6.53.
Regarding `COc1cc(C(=N)N2CCCC2)ccc1OC(=O)[C@H](C)N(C)c1cccc(C(=N)N)c1` [compound of Ex. 36, 4-[imino(pyrrolidin-1-yl)methyl]-2-methoxyphenyl N-{3-[amino(imino)methyl]phenyl}-N-methyl-L-alaninate 2 trifluoroacetate], the IC50 on FXa is 31.6 nM; in experiment [1], 7080 nM. The paPTT2 with human plasma came to 6.67.
